Source: PubChem BioAssay (NCI)
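How tested: cells in 96-well plates exposed to compound for 48 hours at five concentrations. TGI: total growth inhibition.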

Experiments:
Test in all cases: NCI-60 cell line screen, 48 h
[1] = tested on: KM12 colon
[2] = tested on: NCI-H460 lung
[3] = tested on: SF-295 CNS
[4] = tested on: T-47D breast
[5] = tested on: MDA-MB-435
[6] = tested on: HT29 colon
[7] = tested on: SK-OV-3 ovarian
[8] = tested on: LOX IMVI melanoma
[9] = tested on: M14 melanoma
[10] = tested on: SN12C renal
[11] = tested on: MOLT-4 leukemia
[12] = tested on: HOP-62 NSCLC
[13] = tested on: MDA-N
[14] = tested on: OVCAR-8 ovarian
[15] = tested on: OVCAR-3 ovarian
[16] = tested on: NCI-H226 lung
[17] = tested on: BT-549 breast
[18] = tested on: NCI-H23 lung
[19] = tested on: NCI-H522 lung
[20] = tested on: IGROV1 ovarian
[21] = tested on: NCI/ADR-RES ovarian
[22] = tested on: UACC-257 melanoma
[23] = tested on: COLO 205 colon
[24] = tested on: HCT-116 colon
[25] = tested on: SK-MEL-5 melanoma
[26] = tested on: UACC-62 melanoma
[27] = tested on: UO-31 renal
[28] = tested on: SF-268 CNS
[29] = tested on: SW-620 colon
[30] = tested on: SNB-19 CNS
[31] = tested on: HL-60(TB) leukemia
[32] = tested on: EKVX NSCLC
[33] = tested on: PC-3 prostate
[34] = tested on: SNB-75 CNS
[35] = tested on: CAKI-1 renal
[36] = tested on: OVCAR-5 ovarian
[37] = tested on: A549 NSCLC
[38] = tested on: SK-MEL-2 melanoma
[39] = tested on: SF-539 CNS
[40] = tested on: 786-0 renal
[41] = tested on: SR leukemia
[42] = tested on: RXF 393 renal
[43] = tested on: CCRF-CEM leukemia
[44] = tested on: HS 578T breast
[45] = tested on: HOP-92 NSCLC
[46] = tested on: HCT-15 colon
[47] = tested on: SK-MEL-28 melanoma
[48] = tested on: RPMI-8226 leukemia
[49] = tested on: MDA-MB-231 breast
[50] = tested on: DU-145 prostate
[51] = tested on: U251 CNS
[52] = tested on: TK-10 renal
[53] = tested on: K-562 leukemia
[54] = tested on: ACHN renal
[55] = tested on: HCC-2998 colon
[56] = tested on: MCF7 breast
[57] = tested on: MALME-3M melanoma
[58] = tested on: OVCAR-4 ovarian

Compound: Cc1cc(C)nc(NS(=O)(=O)c2ccc(NNc3c4ccccc4nc4c(C(=O)Nc5ccc(S(N)(=O)=O)cc5)cccc34)cc2)n1
- TGI [1]: > 100 µM
- TGI [2]: > 100 µM
- TGI [3]: > 100 µM
- TGI [4]: > 100 µM
- TGI [5]: > 100 µM
- TGI [6]: > 100 µM
- TGI [7]: > 100 µM
- TGI [8]: > 100 µM
- TGI [9]: > 100 µM
- TGI [10]: > 100 µM
- TGI [11]: > 100 µM
- TGI [12]: > 100 µM
- TGI [13]: > 100 µM
- TGI [14]: > 100 µM
- TGI [15]: > 100 µM
- TGI [16]: > 100 µM
- TGI [17]: > 100 µM
- TGI [18]: > 100 µM
- TGI [19]: 85.8 µM
- TGI [20]: > 100 µM
- TGI [21]: > 100 µM
- TGI [22]: > 100 µM
- TGI [23]: > 100 µM
- TGI [24]: > 100 µM
- TGI [25]: > 100 µM
- TGI [26]: > 100 µM
- TGI [27]: > 100 µM
- TGI [28]: > 100 µM
- TGI [29]: > 100 µM
- TGI [30]: > 100 µM
- TGI [31]: > 100 µM
- TGI [32]: > 100 µM
- TGI [33]: 32.9 µM
- TGI [34]: 33 µM
- TGI [35]: > 100 µM
- TGI [36]: > 100 µM
- TGI [37]: > 100 µM
- TGI [38]: 46.7 µM
- TGI [39]: > 100 µM
- TGI [40]: > 100 µM
- TGI [41]: 73.3 µM
- TGI [42]: > 100 µM
- TGI [43]: 83.6 µM
- TGI [44]: > 100 µM
- TGI [45]: > 100 µM
- TGI [46]: > 100 µM
- TGI [47]: 92.3 µM
- TGI [48]: > 100 µM
- TGI [49]: 89 µM
- TGI [50]: > 100 µM
- TGI [51]: 70.3 µM
- TGI [52]: > 100 µM
- TGI [53]: > 100 µM
- TGI [54]: > 100 µM
- TGI [55]: 84.3 µM
- TGI [56]: > 100 µM
- TGI [57]: > 100 µM
- TGI [58]: > 100 µM

Compound: NC(N)=NS(=O)(=O)c1ccc(NNc2c3ccccc3nc3c(C(=O)Nc4ccc(S(=O)(=O)N=C(N)N)cc4)cccc23)cc1
- TGI [1]: > 100 µM
- TGI [2]: > 100 µM
- TGI [3]: > 100 µM
- TGI [4]: > 100 µM
- TGI [5]: > 100 µM
- TGI [6]: > 100 µM
- TGI [7]: > 100 µM
- TGI [8]: > 100 µM
- TGI [9]: > 100 µM
- TGI [10]: > 100 µM
- TGI [11]: 80.4 µM
- TGI [12]: > 100 µM
- TGI [13]: > 100 µM
- TGI [14]: > 100 µM
- TGI [15]: > 100 µM
- TGI [16]: > 100 µM
- TGI [17]: > 100 µM
- TGI [18]: > 100 µM
- TGI [19]: 67.1 µM
- TGI [20]: > 100 µM
- TGI [21]: > 100 µM
- TGI [22]: > 100 µM
- TGI [23]: > 100 µM
- TGI [24]: > 100 µM
- TGI [25]: > 100 µM
- TGI [26]: > 100 µM
- TGI [27]: > 100 µM
- TGI [28]: > 100 µM
- TGI [29]: > 100 µM
- TGI [30]: > 100 µM
- TGI [31]: 88.8 µM
- TGI [32]: 95.8 µM
- TGI [33]: > 100 µM
- TGI [34]: > 100 µM
- TGI [35]: > 100 µM
- TGI [36]: > 100 µM
- TGI [37]: > 100 µM
- TGI [38]: > 100 µM
- TGI [39]: > 100 µM
- TGI [40]: > 100 µM
- TGI [41]: > 100 µM
- TGI [42]: > 100 µM
- TGI [43]: 60.1 µM
- TGI [44]: > 100 µM
- TGI [45]: > 100 µM
- TGI [46]: > 100 µM
- TGI [47]: 89.6 µM
- TGI [48]: > 100 µM
- TGI [49]: > 100 µM
- TGI [50]: > 100 µM
- TGI [51]: > 100 µM
- TGI [52]: > 100 µM
- TGI [53]: 63.6 µM
- TGI [54]: > 100 µM
- TGI [55]: > 100 µM
- TGI [56]: > 100 µM
- TGI [57]: 79.1 µM
- TGI [58]: > 100 µM
